# Test results published in US20120108501A1, “Protease Inhibitors” (priority 2009, published 2012).
# Structures can show the parent of a compound that is named as a salt. Where two headings read alike, the source gives them in different places.
# Columns and labels:
# [1] = Pharmacokinetics of released PEGylated protease inhibitor following P.O. administration of prodrugs in rats; type: in vivo, male Sprague-Dawley rats; set-up: AUCall Mean: concentration or dose not given beside the values; C24 Mean: unit not given here; conditions: rats (n = 4-5)
# Method in brief: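 Prodrugs given orally to male Sprague-Dawley rats, with serial blood via jugular catheter into K2EDTA. Plasma levels of test article or released PEGylated inhibitor measured by LC-MS/MS. PK parameters from noncompartmental analysis.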
# [2] = Pharmacokinetics of PEGylated protease inhibitor prodrugs in rats; type: in vivo, male Sprague-Dawley rats; set-up: AUCall / AUC: concentration or dose not given beside the values; conditions: prodrug in plasma; for AUCall / Cmax / AUC: mean ± SD; for half-life: read-out: t½(z) (converted)
# Experimental: Pharmacokinetic analysis of protease inhibitors described herein was conducted. To evaluate the pharmacokinetics of PEGylated protease inhibitor conjugates with releasable lipophilic attachments, test compounds were administered to male Sprague-Dawley rats.
# At various times following test article administration, serial blood samples were collected from indwelling jugular vein catheters and transferred to micro-tubes containing 7.5 μL of 20% w/v K2EDTA as an anticoagulant. Following processing of the blood samples to plasma (10 minutes at 10000 rpm, Centrifuge Model: Kubota 3500), plasma concentrations of the test article or corresponding PEGylated molecule released from the test article was measured using LC-MS/MS methods. Pharmacokinetic parameters were estimated using noncompartmental methods.
# Table 3 presents a summary of pharmacokinetic parameters of PEGylated protease inhibitor prodrugs, wherein Cmax is the maximum (peak) concentration, AUCall represents the area under the concentration-time curve from zero to time of last concentration value, T½ is half life, and MRTlast is the mean residence time to last observable concentration
# [3] = mPEG6-atazanavir in plasma after PO administration of mPEG6-ATV or of the listed prodrug
# [4] = mPEG3-atazanavir in plasma after PO administration of mPEG3-ATV or of the listed prodrug
# [5] = mPEG5-atazanavir in plasma after PO administration of mPEG5-ATV or of the listed prodrug
# [6] = male, Sprague-Dawley, rat, oral
# [7] = male, Sprague-Dawley, rat, oral, read-out: Cmax
# [8] = male, Sprague-Dawley, rat, in vivo
# [9] = male, Sprague-Dawley, rat, in vivo, read-out: Cmax
Molecule,MRTlast [2] [h],AUCall [2] [ng·h/mL],Cmax [2] [ng/mL],t½(z) [2],Cmin(24 hr) ([2]; 24 hr),"AUCall Mean [1, 4] [ng·h/mL]","Cmax Mean [1, 4] [ng/mL]","MRT last Mean [1, 4] [h]","Tmax* Median [1, 4] [h]",further results
"COCCOCCOCCOCCOCCOCCOC(=O)NC(C(=O)NC(Cc1ccccc1)C(CN(Cc1ccc(-c2ccccn2)cc1)NC(=O)C(NC(=O)OC)C(C)(C)C)OC(=O)COCCOC(=O)C(N)CC(C)C)C(C)(C)C.Cl (centres unmarked) [mPEG6-Atazanavir-CME-Leucine HCl, mPEG6-Atazanavir-CME-Leucine]",2.24 ± 2.58,2.56 ± 2.89,0.851 ± 0.730,–,–,–,–,–,–,"AUCall Mean [1, 3]: 287 ng·h/mL; Cmax Mean [1, 3]: 8.65 ng/mL; MRT last Mean [1, 3]: 21.8 h; Tmax Median [1, 3]: 1.50 h"
"COCCOCCOCCOCCOCCOCCOC(=O)NC(C(=O)NC(Cc1ccccc1)C(CN(Cc1ccc(-c2ccccn2)cc1)NC(=O)C(NC(=O)OC)C(C)(C)C)OCOC)C(C)(C)C (centres unmarked) [mPEG6-Atazanavir-methyl methyl ether, mPEG6-Atazanavir Methyl Methyl Ether]",5.12 ± 1.74,1140 ± 312,222 ± 73,11.2 ± 7.72 h,3.47 ± 2.81 ng/mL,–,–,–,–,"AUCall Mean [1, 3]: 55.8 ng·h/mL; Cmax Mean [1, 3]: 11.3 ng/mL; MRT last Mean [1, 3]: 3.11 h; Tmax Median [1, 3]: 1.50 h"
"COCCOCCOCCOC(=O)NC(C(=O)NC(Cc1ccccc1)C(CN(Cc1ccc(-c2ccccn2)cc1)NC(=O)C(NC(=O)OC)C(C)(C)C)OC(=O)COCCOC(=O)C(Cc1ccccc1)NC(=O)C(N)Cc1ccccc1)C(C)(C)C.Cl (centres unmarked) [mPEG3-atazanavir-CME-phe-phenylalanine, mPEG3-Atazanavir-CME-PhePhenylalanine]",0.696 ± 0.381,0.919 ± 0.968,0.772 ± 0.253,–,–,120,6.26,16.2,1.25,–
"CCOC(C)OC(CN(Cc1ccc(-c2ccccn2)cc1)NC(=O)C(NC(=O)OC)C(C)(C)C)C(Cc1ccccc1)NC(=O)C(NC(=O)OCCOCCOCCOCCOCCOC)C(C)(C)C (mixture of isomers) [1-ethoxyethoxy-mPEG5-Atazanivir, ethoxy ethoxy mPEG5-atazanavir]",1.80 ± 0.060,4960 ± 1730,1420 ± 595,2.14 ± 1.85 h,0.208 ± 0.416 ng/mL,–,–,–,–,"AUCall Mean [1, 5]: 329 ng·h/mL; Cmax Mean [1, 5]: 109 ng/mL; MRT last Mean [1, 5]: 1.95 h; Tmax Median [1, 5]: 1.50 h"
"COCCOCCOCCOC(=O)NC(C(=O)NC(Cc1ccccc1)C(CN(Cc1ccc(-c2ccccn2)cc1)NC(=O)C(NC(=O)OC)C(C)(C)C)OC(=O)COCCOC(=O)C(N)Cc1ccccc1)C(C)(C)C.Cl (centres unmarked) [mPEG3-Atazanavir-CME-phenylalanine HCl, mPEG3-atazanavir-CME-phenylalanine]",2.36 ± 3.57,10.2 ± 8.7,7.98 ± 6.06,–,–,99.5,4.48,18.5,6.00,–
COCCOCCOCCOCCOCCOC(=O)N[C@H](C(=O)N[C@@H](Cc1ccccc1)[C@H](CN(Cc1ccc(-c2ccccn2)cc1)NC(=O)[C@@H](NC(=O)OC)C(C)(C)C)OC(=O)[C@@H](N)CC(C)C)C(C)(C)C [mPEG5-Atazanavir-L-Leucine],–,–,–,–,–,–,–,–,–,"MRT last [2, 6]: 1.71 ± 0.327 h; AUC [2, 6]: 487 ± 348 ng·h/mL; Cmax [2, 7]: 191 ± 85.6 ng/mL; half-life [2, 6]: 2.37 ± 2.19 h"
"CCOCO[C@@H](CN(Cc1ccc(-c2ccccn2)cc1)NC(=O)[C@@H](NC(=O)OC)C(C)(C)C)[C@H](Cc1ccccc1)NC(=O)[C@@H](NC(=O)OCCOCCOCCOC)C(C)(C)C [mPEG3-Atazanavir-methyl ethyl ether, mPEG3-Atazanavir Methyl Ethyl Ether]",2.44 ± 0.920,6590 ± 2150,1600 ± 442,9.41 ± 3.35 h,0.797 ± 0.260 ng/mL,822,190,3.29,0.750,"C24 Mean ([1]; concentration at 24 hours, mPEG3-atazanavir in plasma after PO administration of mPEG3-ATV or of the listed prodrug): 1.20"
"COCCOCCOCCOC(=O)NC(C(=O)NC(Cc1ccccc1)C(CN(Cc1ccc(-c2ccccn2)cc1)NC(=O)C(NC(=O)OC)C(C)(C)C)OC(=O)CNC(=O)C(N)CC(C)C)C(C)(C)C.Cl (stereo not drawn) [Leu-Gly-mPEG3-Atazanavir, Leu-Gly-mPEG3-Atazanavir Hydrochloride]",0.597 ± 0.376,0.955 ± 1.02,0.833 ± 0.676,–,–,44.9,2.10,15.9,4.00,–
mPEG3-atazanavir-ethoxy-CME-Leu-Leu [mPEG-3-Atazanavir-Ethoxy-CM-Leu-Leu],1.01 ± 0.095,8.27 ± 3.06,2.95 ± 1.30,1.21 NC^ hr,–,148,6.42,16.5,9.00,–
"COCCOCCOCCOC(=O)NC(C(=O)NC(Cc1ccccc1)C(CN(Cc1ccc(-c2ccccn2)cc1)NC(=O)C(NC(=O)OC)C(C)(C)C)OC(=O)C(N)CC(C)C)C(C)(C)C.Cl [mono-mPEG3-Atazanavir-L-Leucine, mPEG3-Atazanavir-L-Leucine]",2.73 ± 0.912,1930 ± 1170,470 ± 179,3.33 ± 0.958 h,–,347,66.0,4.14,0.750,–
"CCOC(C)OC(CN(Cc1ccc(-c2ccccn2)cc1)NC(=O)C(NC(=O)OC)C(C)(C)C)C(Cc1ccccc1)NC(=O)C(NC(=O)OCCOCCOCCOC)C(C)(C)C (mixture of isomers) [1-ethoxyethoxy-mPEG3-Atazanivir, ethoxy ethoxy mPEG3-atazanavir]",1.62 ± 0.350,3950 ± 2740,1370 ± 549,2.01 ± 0.88 h,0.370 ± 0.455 ng/mL,500,154,2.35,0.500,–
"COCCOCCOCCOCCOCCOC(=O)N[C@H](C(=O)N[C@@H](Cc1ccccc1)[C@H](CN(Cc1ccc(-c2ccccn2)cc1)NC(=O)[C@@H](NC(=O)OC)C(C)(C)C)OC(=O)[C@H](CC(C)C)NC(=O)[C@@H](N)Cc1ccccc1)C(C)(C)C [Phe-Leu-mPEG5-Atazanavir HCl, Phe-Leu-mPEG5-Atazanavir Hydrochloride]",–,–,–,–,BLQ,–,–,–,–,"MRT last [2, 8]: 1.46 ± 0.396 h; AUC [2, 8]: 42.4 ± 11.6 ng·h/mL; Cmax [2, 9]: 17 ± 4.2 ng/mL; half-life [2, 8]: 1.52 h"
"COCCOCCOCCOC(=O)N[C@H](C(=O)N[C@@H](Cc1ccccc1)[C@H](CN(Cc1ccc(-c2ccccn2)cc1)NC(=O)[C@@H](NC(=O)OC)C(C)(C)C)OC(=O)[C@H](Cc1ccccc1)NC(=O)[C@@H](N)C(C)C)C(C)(C)C [Val-Phe-mPEG3-Atazanavir, Val-Phe-mPEG3-Atazanavir Hydrochloride]",–,–,–,–,–,–,–,–,–,"MRT last [2, 8]: 1.68 ± 0.297 h; AUC [2, 8]: 700 ± 361 ng·h/mL; Cmax [2, 9]: 334 ± 133 ng/mL; half-life [2, 8]: 2.25 ± 1.28 h"
"COCCOCCOCCOCCOCCOC(=O)N[C@H](C(=O)N[C@@H](Cc1ccccc1)[C@H](CN(Cc1ccc(-c2ccccn2)cc1)NC(=O)[C@@H](NC(=O)OC)C(C)(C)C)OC(=O)CNC(=O)[C@@H](N)Cc1ccccc1)C(C)(C)C [Phe-Gly-mPEG5-Atazanavir HCl, Phe-Gly-mPEG5-Atazanavir Hydrochloride]",–,–,–,–,–,–,–,–,–,"MRT last [2, 8]: 0.357 ± 0.129 h; AUC [2, 8]: 0.341 ± 0.313 ng·h/mL; Cmax [2, 9]: 0.895 ± 0.808 ng/mL"
"COCCOCCOCCOCCOCCOC(=O)N[C@@H](C(=O)N[C@@H](Cc1ccccc1)[C@H](CN(Cc1ccc(-c2ccccn2)cc1)NC(=O)[C@H](NC(=O)OC)C(C)(C)C)OC(=O)CCCC(=O)O[C@@H]1[C@@H](O)[C@@H](O)O[C@@H]1[C@H](O)CO)C(C)(C)C [(5R,10S,11S,14R)-11-benzyl-5,14-di-tert-butyl-3,6,13,16-tetraoxo-8-(4-(pyridin-2-yl)benzyl)-2,17,20,23,26,29,32-heptaoxa-4,7,8,12,15-pentaazatritriacontan-10-yl (2R,3R,4R,5S)-2-((R)-1,2-dihydroxyethyl)-4,5-dihydroxytetrahydrofuran-3-yl glutarate]",–,–,–,–,–,–,–,–,–,"MRT last [2, 6]: 11.4 ± 7.37 h; concentration at 24 hr ([2]; male, Sprague-Dawley, rat, oral, 24 hr, read-out: Cmin(24 hr)): 2.64 ± 2.87 ng/mL; AUC [2, 6]: 78.5 ± 78.2 ng·h/mL; Cmax [2, 7]: 13.1 ± 12.4 ng/mL"
